According to patent US8450053B2, “ZAP-70 as predictor and modulator of effector function of T cells” (University of Maryland, Baltimore, priority 2007, dated 2013):
Entries after “also recorded” stand apart in the source; their conditions may differ.

Tests used:
Type in all cases: cell-based, mouse
memory CD4 T cells = assay: Inhibitor assay: OVA-specific memory CD4 T cells stimulated with OVA/APC, flow cytometry and intracellular cytokine staining
Procedure: (§1) Intracellular cytokine staining (ICS) analysis of signaling intermediates and cytokines was performed as previously described (Bingaman et al., 2005, supra; Ahmadzadeh and Farber, 2002, supra). Briefly, naive or memory CD4 T cells were cultured with APC and 800 ng/ml OVA peptide for time points of 0-48 hrs, and monensin (Golgistop™, BD Pharmingen) was added 6 hrs prior to harvesting. Cells were stained with antibodies for surface markers CD4, CD25, CD44, KJ1-26, fixed (Cytofix™ buffer, BD Pharmingen), permeabilized, and stained intracellularly with fluorochrome-conjugated antibodies to cytokines, signaling intermediates, and analyzed by flow cytometry.
(§2) Six-color flow cytometry was performed on BD LSR II flow cytometer (BD Biosciences) using FITC, PE, PERCP and PE-Cy7, allophycocyanin-Cy7, and allophycocyanin as fluorochromes (BD Biosciences, e-biosciences, Invitrogen/caltag). CD4 T cells stained with single color fluorochromes were used for compensation, background values were established with isotype controls, and data were analyzed using BD FACSDiva™ software (BD Biosciences). Fluorochrome-conjugated antibodies directed against CD4 (clone GK1.5), CD25 (PC61), CD69 (H1.2F3), CD62L (MEL-14), CD44 (IM7), CD3ε (145-2C11), IFN-γ (XMG1.2), phospho-ZAP-70 (17-P), phospho-PLC-γ (27/PLC), and phospho-Stat1 (clone 4a) were all purchased from BD-Pharmingen (San Diego, Calif.). PE- and APC-conjugated KJ1-26 specific for the DO11.10 TCR clonotype were purchased from CALTAG Laboratories (Burlingame, Calif.). PE- and FITC-conjugated ZAP-70 (1E7.2) was obtained from Invitrogen (Carlsbad, Calif.), and FITC-conjugated phospho-tyrosine (PT-66) from Sigma (St. Louis, Mo.), and phospho-p38 (28B10) and phospho-erk1/2 (E10) were purchased from Cell signaling technology, Inc. (Danvers, Mass.). For most analyses, a given marker was analyzed using several different fluorochromes to eliminate errors based on compensation.
(§3) Naive or memory CD4 T cells (1×10^6) were cultured with APC (3×10^6) in total volume of 1 ml of Clicks medium containing 800 ng/ml OVA peptide for time points of 0-24 hrs along with inhibitors cycloheximide (Sigma, 50 μg/ml) or piceatannol (Calbiochem, 12 μM of 3,4,3′,5′-tetrahydroxy-trans-stilbene). Solvent alone served as a vehicle control.

naive CD4 T cells = assay: Inhibitor assay: OVA-specific naive CD4 T cells stimulated with OVA/APC, flow cytometry; conditions: cycloheximide 50 μg/ml
Procedure: as §1, §2, §3

[1] = test system: naive and memory CD4 T cells; assay: Viability of naive and memory CD4 T cells cultured with cycloheximide; conditions: after 24 hrs in cycloheximide, average
Procedure: as §3

ZAP-70 = assay: siRNA-mediated knockdown of ZAP-70 in OVA-specific memory CD4 T cells
Procedure: Cy3-labeled ZAP-70 specific siRNA Sense (5′→3′)/Cy3/GGCGGAUGGACUAAUUUACtt (SEQ ID NO: 10); Antisense (5′→3′) GUAAAUUAGUCCAUCCGCCtt (SEQ ID NO:11) or control GAPDH siRNA obtained from Ambion (Austin, Tex.) was delivered at a final concentration of 5 μM into 1.0×10^6 purified resting memory OVA-specific CD4 T cells using the mouse T cell nucleofector kit (Amaxa Inc., Gaithersburg, Md.) according to the manufacturers instructions and similar to the approach previously employed for siRNA transfections in mouse T cells (Sabbagh et al., 2006, Proc. Natl. Acad. Sci. USA 103:18703-18708). Following nucleofection, cell suspensions were cultured in media in 24 well plates with APC (2×10^6/well) and OVA-peptide (800 ng/ml), followed by incubation at 37° C. for 18 hrs. After 18 hrs, Golgistop (BD Pharmingen, USA) (0.66 μl/ml of culture) was added, cells were incubated for an additional 6 hrs, and subsequently staining for surface expression of CD4, KJ1-26 and CD25, and intracellular expression of ZAP-70 and IFN-γ as above.

[2] = antigen-stimulated memory CD4 T cells, 24 hrs, cycloheximide 50 μg/ml
[3] = memory CD4 T cells, +/-antigen, 6 hrs, cycloheximide 50 μg/ml
[4] = naive CD4 T cells, +/-antigen, 6 hrs
[5] = naive T cells, antigenic stimulation 24 hrs
[6] = memory CD4 T cells, OVA/APC 6 hrs, piceatannol 12 μM

C[C@@H]1C[C@@H]([C@H](O)CC2CC(=O)NC(=O)C2)C(=O)[C@@H](C)C1 [cycloheximide]
CD25 up-regulation (memory CD4 T cells; [2]): inhibited
memory CD4 T cells maintaining high level of ZAP-70 expression (memory CD4 T cells; [2]): > 50%
intracellular tyrosine phosphorylation (memory CD4 T cells; [3]): did not affect
resting state level of ZAP-70 (memory CD4 T cells; [3]): did not affect
p-Tyr levels (memory CD4 T cells; memory T cells, 24 hrs, cycloheximide 50 μg/ml): did not affect
increases in total intracellular p-Tyr levels (naive CD4 T cells; activated naive CD4 T cells, 24 hrs): significantly inhibited
intracellular tyrosine phosphorylation (naive CD4 T cells; [4]): did not affect
resting state level of ZAP-70 (naive CD4 T cells; [4]): did not affect
up-regulation of CD25 expression (naive CD4 T cells; [5]): completely inhibited
up-regulation of ZAP-70 expression (naive CD4 T cells; [5]): completely inhibited
Viability [1]: 70%

Oc1cc(O)cc(/C=C/c2ccc(O)c(O)c2)c1 [piceatannol, 3,4,3′,5′-tetrahydroxy-trans-stilbene]
ZAP-70 expression, dose response (memory CD4 T cells; antigen-stimulated memory CD4 T cells, +/-OVA/APC, six hrs): reduced ZAP-70 expression in a dose-dependent fashion
ZAP-70 expression (memory CD4 T cells; [6]): specifically reduced
basal level of CD25 (memory CD4 T cells; [6]): without affecting
rapid IFN-γ production (memory CD4 T cells; [6]): striking inhibition; also recorded: completely blocked
total p-Tyr content (memory CD4 T cells; [6]): without affecting

ZAP-70 specific siRNA: Cy3-labeled ZAP-70 specific siRNA, sense GGCGGAUGGACUAAUUUACtt (SEQ ID NO: 10), antisense GUAAAUUAGUCCAUCCGCCtt (SEQ ID NO:11) (sense GGCGGAUGGACUAAUUUACTT; antisense GUAAAUUAGUCCAUCCGCCTT; Cy3 label, further chemistry not given here)
early IFN-γ production (ZAP-70; memory CD4 T cells, ZAP-70 downmodulated using siRNA): inhibited
reduction in the proportion of memory T cells producing IFN-γ (ZAP-70; siRNA 5 μM, OVA/APC 24 hrs, vs siRNA- and GAPDH siRNA transfectants): 50%
ZAP-70 expression (MFI) (ZAP-70; silenced (siRNA+) vs unsilenced (siRNA-) memory CD4 T cells, siRNA 5 μM, OVA/APC 24 hrs): reduction in ZAP-70 expression
